Data on 13 molecules can be found in patent publication US9469674B2 (HAINAN UNIVERSITY, dated 2016).

“Also recorded” adds a separate entry of the source. Where a SMILES comes first, the peptide text is derived from it. Bridges are numbered along the chain shown (N, C = ends). Where no end group is shown, it is not given here.

In assay [1] the target is α4β4 nAChR (Rattus norvegicus, UniProt P09483+P12392). Kind of assay: cell-based. Type of assay: cell-based.
For assay [2], the target named is α9α10 nAChR (Rattus norvegicus, UniProt P43144+Q9JLB5). Kind of assay: cell-based.
The target of assay [3] is human α6/α3β2β3 nAChR (Homo sapiens, UniProt P17787+P32297+Q15825). The assay can be described thus: cell-based. Type of assay: cell-based.
Assay [4] deals with α3β4 nAChR (Rattus norvegicus, UniProt P04757+P12392). Kind of assay: cell-based. Type of assay: cell-based.
The target in assay [5] is α2β4 nAChR (Rattus norvegicus, UniProt P12389+P12392). Kind of assay: cell-based. Type of assay: cell-based.
Assay [6] has as its target α6/α3β4 nAChR (Rattus norvegicus, UniProt P04757+P12392+P43143). The assay can be described thus: cell-based. The format is cell-based.
Assay [7] concerns the target α6/α3β2β3 nAChR (Rattus norvegicus, UniProt P04757+P12390+P43143). The assay can be described thus: cell-based. Type of assay: cell-based.
In assay [8] the target is α4β2 nAChR (Rattus norvegicus, UniProt P09483+P12390). Kind of assay: cell-based.
The target in assay [9] is α7 nAChR (Rattus norvegicus, UniProt Q05941). Kind of assay: cell-based. The format is cell-based.
Chain of α7 nAChR (Q05941 23-502 limits assumed): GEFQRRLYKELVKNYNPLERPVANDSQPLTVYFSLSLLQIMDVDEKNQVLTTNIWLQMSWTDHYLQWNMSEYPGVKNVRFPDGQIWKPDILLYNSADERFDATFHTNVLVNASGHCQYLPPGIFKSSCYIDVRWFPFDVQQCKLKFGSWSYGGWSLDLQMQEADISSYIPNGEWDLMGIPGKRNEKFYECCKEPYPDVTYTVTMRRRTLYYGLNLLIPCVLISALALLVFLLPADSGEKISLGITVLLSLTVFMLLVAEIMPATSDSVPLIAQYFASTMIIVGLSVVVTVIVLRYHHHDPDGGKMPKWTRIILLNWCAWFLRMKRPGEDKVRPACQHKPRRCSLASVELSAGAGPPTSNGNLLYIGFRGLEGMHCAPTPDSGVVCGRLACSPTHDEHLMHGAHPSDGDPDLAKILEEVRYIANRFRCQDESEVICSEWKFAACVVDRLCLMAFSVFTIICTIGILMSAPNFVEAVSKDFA
Assay [10] concerns the target α2β2 nAChR (Rattus norvegicus, UniProt P12389+P12390). The assay can be described thus: cell-based. The format is cell-based.
In assay [11] the target is α3β2 nAChR (Rattus norvegicus, UniProt P04757+P12390). The assay can be described thus: cell-based. Conditions: for IC50: IC50 (half-blocking dose). Type of assay: cell-based.
In assay [12] the test system is other nAChRs subtypes. The format is cell-based. Particulars: read-out: IC50 on other nAChRs subtypes (no blocking activity).
The target of assay [13] is α6/α3β4 acetylcholine receptor. Particulars: read-out: half-blocking dose IC50; cited from earlier work.
Assay [14] deals with α9α10 acetylcholine receptor (Homo sapiens, UniProt Q9GZZ6+Q9UGM1). Conditions: read-out: half-blocking dose IC50; cited from earlier work.
Chain of α9α10 acetylcholine receptor (Q9UGM1 26-479 limits assumed): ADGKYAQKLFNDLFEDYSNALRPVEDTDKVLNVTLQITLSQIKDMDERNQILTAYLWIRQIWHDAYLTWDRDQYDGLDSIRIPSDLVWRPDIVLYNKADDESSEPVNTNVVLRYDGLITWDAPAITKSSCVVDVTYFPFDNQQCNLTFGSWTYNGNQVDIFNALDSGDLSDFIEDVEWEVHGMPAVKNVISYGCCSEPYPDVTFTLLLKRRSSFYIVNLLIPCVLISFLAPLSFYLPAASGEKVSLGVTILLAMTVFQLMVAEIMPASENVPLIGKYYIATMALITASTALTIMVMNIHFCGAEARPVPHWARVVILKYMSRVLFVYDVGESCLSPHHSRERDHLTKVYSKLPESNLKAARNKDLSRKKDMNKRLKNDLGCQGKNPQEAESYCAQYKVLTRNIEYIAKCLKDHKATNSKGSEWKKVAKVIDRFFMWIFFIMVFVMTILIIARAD
Chain of α9α10 acetylcholine receptor (Q9GZZ6 25-450 limits assumed): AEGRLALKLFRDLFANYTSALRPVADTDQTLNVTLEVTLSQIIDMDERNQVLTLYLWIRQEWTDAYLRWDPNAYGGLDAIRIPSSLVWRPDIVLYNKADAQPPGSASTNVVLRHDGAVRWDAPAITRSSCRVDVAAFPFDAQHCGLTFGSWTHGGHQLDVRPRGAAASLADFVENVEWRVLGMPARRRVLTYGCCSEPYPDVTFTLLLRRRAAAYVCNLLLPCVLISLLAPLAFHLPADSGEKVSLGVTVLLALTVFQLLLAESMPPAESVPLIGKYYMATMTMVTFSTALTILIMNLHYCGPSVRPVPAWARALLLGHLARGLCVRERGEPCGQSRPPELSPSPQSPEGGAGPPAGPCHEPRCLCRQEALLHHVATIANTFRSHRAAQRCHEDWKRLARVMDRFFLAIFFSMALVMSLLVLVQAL
The target in assay [15] is α6/α3β2β3 acetylcholine receptor. Conditions: read-out: half-blocking dose IC50; cited from earlier work.
Assay [16] concerns the target α3β2 acetylcholine receptor (Homo sapiens, UniProt P17787+P32297). Conditions: read-out: half-blocking dose IC50; cited from earlier work.
The target in assay [17] is α7 acetylcholine receptor (Homo sapiens, UniProt P36544). Particulars: read-out: half-blocking dose IC50; cited from earlier work.
Chain of α7 acetylcholine receptor (P36544 23-502 limits assumed): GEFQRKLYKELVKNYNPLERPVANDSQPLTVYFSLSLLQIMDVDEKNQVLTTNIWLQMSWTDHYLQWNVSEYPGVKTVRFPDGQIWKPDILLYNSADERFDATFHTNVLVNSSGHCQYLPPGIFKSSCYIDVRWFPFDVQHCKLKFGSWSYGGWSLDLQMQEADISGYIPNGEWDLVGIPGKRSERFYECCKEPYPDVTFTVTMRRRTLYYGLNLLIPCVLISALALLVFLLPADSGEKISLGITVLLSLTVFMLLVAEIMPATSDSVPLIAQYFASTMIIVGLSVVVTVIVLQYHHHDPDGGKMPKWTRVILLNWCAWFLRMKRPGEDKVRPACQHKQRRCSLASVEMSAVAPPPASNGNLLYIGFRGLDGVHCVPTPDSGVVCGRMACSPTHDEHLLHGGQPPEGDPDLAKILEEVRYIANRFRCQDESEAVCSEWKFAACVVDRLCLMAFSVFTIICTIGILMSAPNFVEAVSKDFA
In assay [18] the target is α3β4 acetylcholine receptor. Conditions: read-out: half-blocking dose IC50; cited from earlier work.
Assay [19] has as its system nAChRs. Particulars: cited from earlier work.
Assay [20] has as its target rat α9α10 nAChR (rat, UniProt P43144). Kind of assay: cell-based or functional assay.
The target in assay [21] is rat α2β2 nAChR (rat, UniProt P12389). The assay can be described thus: cell-based or functional assay.
The target of assay [22] is rat α2β4 nAChR (rat, UniProt P12389). Kind of assay: cell-based or functional assay.
The target of assay [23] is rat α3β4 nAChR (rat, UniProt P04757). Kind of assay: cell-based or functional assay.
In assay [24] the target is rat α7 nAChR (rat, UniProt Q05941). Kind of assay: cell-based or functional assay.
The target of assay [25] is rat α4β4 nAChR (rat, UniProt P09483). Kind of assay: cell-based or functional assay.
Assay [26] concerns the target rat α4β2 nAChR (rat, UniProt P09483). Kind of assay: cell-based or functional assay.
In assay [27] the target is rat α3β2 nAChR (rat, UniProt P04757). The assay can be described thus: cell-based or functional assay.
For assay [28], the target named is rat α6/α3β4 nAChR (rat) (UniProt P12392).
In assay [29] the target is rat α6/α3β2β3 nAChR (rat) (UniProt P12390).

Broadly, the IC50 is the point on the concentration scale where inhibition reaches its midpoint.

Chain of α3β2 acetylcholine receptor (P32297 32-505 limits assumed): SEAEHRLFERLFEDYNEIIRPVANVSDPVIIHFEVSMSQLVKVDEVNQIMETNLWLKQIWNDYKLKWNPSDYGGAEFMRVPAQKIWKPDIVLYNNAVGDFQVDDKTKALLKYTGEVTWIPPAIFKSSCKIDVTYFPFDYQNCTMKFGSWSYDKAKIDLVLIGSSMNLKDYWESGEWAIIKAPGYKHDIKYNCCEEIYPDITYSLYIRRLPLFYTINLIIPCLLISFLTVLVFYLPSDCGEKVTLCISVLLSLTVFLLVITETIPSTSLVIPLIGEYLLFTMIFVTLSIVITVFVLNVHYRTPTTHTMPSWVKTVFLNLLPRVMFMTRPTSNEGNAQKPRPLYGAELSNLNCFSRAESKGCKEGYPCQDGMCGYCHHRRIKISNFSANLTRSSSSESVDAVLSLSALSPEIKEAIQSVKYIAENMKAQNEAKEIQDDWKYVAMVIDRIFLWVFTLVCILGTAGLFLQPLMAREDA
Chain of α3β2 acetylcholine receptor (P17787 26-502 limits assumed): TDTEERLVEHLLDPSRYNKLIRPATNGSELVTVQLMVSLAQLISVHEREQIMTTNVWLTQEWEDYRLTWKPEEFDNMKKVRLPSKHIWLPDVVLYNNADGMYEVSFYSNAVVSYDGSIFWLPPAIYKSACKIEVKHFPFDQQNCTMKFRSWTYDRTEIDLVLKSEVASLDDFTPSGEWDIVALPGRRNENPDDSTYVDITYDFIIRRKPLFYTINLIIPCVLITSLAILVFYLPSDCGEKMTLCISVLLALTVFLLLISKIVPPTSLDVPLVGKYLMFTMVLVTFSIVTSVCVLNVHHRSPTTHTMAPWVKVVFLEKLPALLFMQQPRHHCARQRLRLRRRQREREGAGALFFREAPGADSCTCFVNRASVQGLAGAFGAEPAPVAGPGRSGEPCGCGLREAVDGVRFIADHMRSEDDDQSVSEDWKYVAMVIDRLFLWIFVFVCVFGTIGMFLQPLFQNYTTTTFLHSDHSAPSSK
Chain of α6/α3β2β3 nAChR (P04757 whole entry, looked up): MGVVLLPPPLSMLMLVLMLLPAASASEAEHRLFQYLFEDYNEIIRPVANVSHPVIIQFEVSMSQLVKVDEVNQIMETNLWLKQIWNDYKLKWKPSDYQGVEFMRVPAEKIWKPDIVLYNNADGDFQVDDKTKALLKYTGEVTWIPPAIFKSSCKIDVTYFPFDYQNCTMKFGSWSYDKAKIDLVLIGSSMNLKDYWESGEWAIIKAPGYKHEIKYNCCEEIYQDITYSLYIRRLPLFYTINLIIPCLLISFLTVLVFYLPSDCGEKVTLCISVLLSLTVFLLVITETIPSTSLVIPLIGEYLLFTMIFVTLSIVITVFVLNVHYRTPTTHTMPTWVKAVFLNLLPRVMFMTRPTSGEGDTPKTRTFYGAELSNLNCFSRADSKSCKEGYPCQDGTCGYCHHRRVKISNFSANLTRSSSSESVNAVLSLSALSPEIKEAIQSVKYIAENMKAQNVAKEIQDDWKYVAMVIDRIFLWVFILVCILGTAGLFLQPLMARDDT
Chain of α6/α3β2β3 nAChR (P12390 whole entry, looked up): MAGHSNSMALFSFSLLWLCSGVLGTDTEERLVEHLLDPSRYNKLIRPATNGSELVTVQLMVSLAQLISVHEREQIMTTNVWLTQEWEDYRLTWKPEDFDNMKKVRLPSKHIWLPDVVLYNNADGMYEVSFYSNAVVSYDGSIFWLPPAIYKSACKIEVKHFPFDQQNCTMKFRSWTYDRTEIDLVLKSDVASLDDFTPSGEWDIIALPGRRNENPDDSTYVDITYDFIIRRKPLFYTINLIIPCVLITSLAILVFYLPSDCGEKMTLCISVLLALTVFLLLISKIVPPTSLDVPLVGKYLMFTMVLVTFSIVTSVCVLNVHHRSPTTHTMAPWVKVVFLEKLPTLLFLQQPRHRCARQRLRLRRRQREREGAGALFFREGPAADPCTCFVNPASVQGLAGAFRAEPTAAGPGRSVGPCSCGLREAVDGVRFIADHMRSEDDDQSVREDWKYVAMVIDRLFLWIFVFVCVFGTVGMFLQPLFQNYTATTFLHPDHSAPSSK
Chain of α6/α3β2β3 nAChR (P43143 whole entry, looked up): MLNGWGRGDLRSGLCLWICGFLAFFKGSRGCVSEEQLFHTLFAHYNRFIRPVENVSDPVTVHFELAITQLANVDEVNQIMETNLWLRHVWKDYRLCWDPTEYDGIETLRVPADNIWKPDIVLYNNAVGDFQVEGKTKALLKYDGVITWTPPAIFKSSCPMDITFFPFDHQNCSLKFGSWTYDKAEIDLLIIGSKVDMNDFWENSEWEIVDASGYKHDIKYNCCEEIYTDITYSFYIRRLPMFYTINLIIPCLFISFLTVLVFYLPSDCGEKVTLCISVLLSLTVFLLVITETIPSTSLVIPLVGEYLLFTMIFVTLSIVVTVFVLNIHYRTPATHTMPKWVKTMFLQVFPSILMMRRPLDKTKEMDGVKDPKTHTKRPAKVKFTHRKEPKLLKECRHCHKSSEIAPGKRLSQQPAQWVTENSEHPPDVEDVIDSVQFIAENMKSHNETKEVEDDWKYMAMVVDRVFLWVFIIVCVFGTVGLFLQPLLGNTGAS
Chain of α6/α3β4 nAChR (P04757 whole entry, looked up): as the sequence (P04757 whole entry, looked up) above
Chain of α6/α3β4 nAChR (P12392 whole entry, looked up): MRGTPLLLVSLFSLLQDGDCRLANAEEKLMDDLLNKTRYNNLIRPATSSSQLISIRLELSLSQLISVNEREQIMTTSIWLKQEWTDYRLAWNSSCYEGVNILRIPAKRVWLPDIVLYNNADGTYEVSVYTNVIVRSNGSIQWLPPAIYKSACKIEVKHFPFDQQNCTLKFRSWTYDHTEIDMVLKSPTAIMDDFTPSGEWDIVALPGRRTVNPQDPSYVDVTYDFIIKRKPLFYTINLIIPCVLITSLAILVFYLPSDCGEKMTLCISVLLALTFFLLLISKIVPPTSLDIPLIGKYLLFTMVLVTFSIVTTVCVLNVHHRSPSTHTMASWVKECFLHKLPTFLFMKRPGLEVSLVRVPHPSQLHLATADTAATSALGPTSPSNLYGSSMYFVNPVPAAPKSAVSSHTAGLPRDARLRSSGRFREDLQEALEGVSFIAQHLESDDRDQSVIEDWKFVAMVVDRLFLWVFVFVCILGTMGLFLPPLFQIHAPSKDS
Chain of α6/α3β4 nAChR (P43143 whole entry, looked up): as the sequence (P43143 whole entry, looked up) above

`CC(C)C[C@@H]1NC(=O)[C@H](CC(=O)O)NC(=O)[C@@H]2CCCN2C(=O)[C@H](Cc2c[nH]cn2)NC(=O)[C@H](CCCCN)NC(=O)[C@H](CC(N)=O)NC(=O)[C@H](CCCNC(=N)N)NC(=O)[C@@H]2CSSC[C@H](NC(=O)CN)C(=O)N[C@@H](CSSC[C@@H](C(=O)NCC(N)=O)NC1=O)C(=O)N[C@@H](CO)C(=O)N[C@@H](CC(=O)O)C(=O)N1CCC[C@H]1C(=O)N1CCC[C@H]1C(=O)N2` [TxIB(G)] (H-GCCSDPPCRNKHPDLCG-NH2; disulfide 2-8, 3-16): the IC50 was > 10 µM in assay [1]; > 10 µM in assay [2]; > 10 µM in assay [4]; > 10 µM in assay [5]; > 10 µM in assay [6]; 0.247 µM in [7]. Also, the IC50 in [8], in [9], in assay [10] and in assay [11] was > 10 µM each time. Moreover, in assay [3], the “blocking activity on human α6/α3β2β3 nAChR” value is given as “blocking activity similar to those for rat α6/α3β2β3 nAChR”. In addition, the “Ratio of half-blocking dose (IC50) between TxIB(G) and TxIB” value in assay [7] was found to be 8.7.

With `CC(C)C[C@@H]1NC(=O)[C@H](CC(=O)O)NC(=O)[C@@H]2CCCN2C(=O)[C@H](Cc2c[nH]cn2)NC(=O)[C@H](CCCCN)NC(=O)[C@H](CC(N)=O)NC(=O)[C@H](CCCNC(=N)N)NC(=O)[C@@H]2CSSC[C@H](NC(=O)CN)C(=O)N[C@@H](CSSC[C@@H](C(N)=O)NC1=O)C(=O)N[C@@H](CO)C(=O)N[C@@H](CC(=O)O)C(=O)N1CCC[C@H]1C(=O)N1CCC[C@H]1C(=O)N2` [TxIB] (H-GCCSDPPCRNKHPDLC-NH2; disulfide 2-8, 3-16), the “blocking activity on human α6/α3β2β3 nAChR” value in assay [3] is reported as “blocking activity similar to those for rat α6/α3β2β3 nAChR”. Also, the “blocking of ACh-gated current” value in assay [4] is given as “totally does not block; also recorded: no blocking activity”; in assay [6] it was “totally does not block; also recorded: no blocking activity”; in assay [7] it was “specifically blocked; also recorded: almost total blocked”; in assay [11] it was “totally does not block; also recorded: no blocking activity”. The “Hill slope of dose-response curve” value in [7] is recorded as 0.51 (0.41-0.60). For the same molecule, the “Ratio of half-blocking dose (IC50) between TxIB(G) and TxIB” value in [7] was 1. The IC50 in assay [12] is > 10 µM.

Regarding `CC(C)C[C@@H]1NC(=O)[C@H](CC(=O)O)NC(=O)[C@@H]2CCCN2C(=O)[C@H](Cc2cnc[nH]2)NC(=O)[C@H](CCCCN)NC(=O)[C@H](CC(N)=O)NC(=O)[C@H](CCCNC(=N)N)NC(=O)[C@@H]2CSSC[C@H](NC(=O)CN)C(=O)N[C@@H](CSSC[C@@H](C(N)=O)NC1=O)C(=O)N[C@@H](CO)C(=O)N[C@@H](CC(=O)O)C(=O)N1CCC[C@H]1C(=O)N1CCC[C@H]1C(=O)N2` [TxIB] (H-GCCSDPPCRNKHPDLC-NH2; disulfide 2-8, 3-16), the IC50 is > 10 µM in assay [1]; > 10 µM in [2]; > 10 µM in assay [4]; > 10 µM in [5]; > 10 µM in assay [6]; 0.0284 µM in assay [7]. In addition, the IC50 in assay [8], in assay [9], in assay [10] and in assay [11] was > 10 µM in each case.

`CC[C@H](C)[C@@H]1NC(=O)[C@@H]2CCCN2C(=O)[C@H](CO)NC(=O)[C@H](CCSC)NC(=O)[C@H](C)NC(=O)[C@H](CO)NC(=O)[C@@H]2CSSC[C@H](NC(=O)CN)C(=O)N[C@@H](CSSC[C@@H](C(N)=O)NC1=O)C(=O)N[C@@H](CO)C(=O)N[C@@H](Cc1c[nH]cn1)C(=O)N1CCC[C@H]1C(=O)N[C@@H](C(C)C)C(=O)N2` [TxIC]: the results for the “blocking of ACh-gated current” value in assay [1], in assay [4] and in [9] were “totally does not block; also recorded: no blocking activity”, “specifically blocked; also recorded: completely blocked” and “totally does not block; also recorded: no blocking activity”, respectively. In addition, the “Hill slope of dose-response curve” value in assay [4] is 0.19 (0.66-1.44); in assay [5] it was 0.20 (1.48-2.42); in assay [6] it was 0.26 (0.73-1.87). Moreover, the half-maximal inhibitory concentration (IC50) in assay [12] is > 10 µM.

On to GCCSDPRCNYDHPEIC* [Vc1.1], for which the IC50 in [13] is 0.98 µM; in assay [14], 0.019 µM; in assay [15] it was 0.14 µM; in [16], 7.3 µM.

In the case of GCCSHPACNVNNPHIC* [RegIIA], the IC50 in assay [17] is 0.103 µM; in [18] it was 0.097 µM; in [16], 0.033 µM.

As to GCCSHPACSVNHPELC* [PeIA], the concentration for half-maximal inhibition (IC50) is 1.8 µM in assay [17], 0.48 µM in assay [18], 0.0069 to 0.0549 µM in assay [14] and 0.023 to 0.0975 µM in assay [16].

On to GCCSYPPCFATNP-DC* [AuIB], for which the IC50 in assay [18] was 0.75 µM.

As to NGRCC-HPACGKHFN--C* [Ac1.1a], the nAChRs selectivity entry in assay [19] was “Muscle nAChR”.

For RDPCCSNPVCTVHNPQIC* [PIA], the concentration for half-maximal inhibition (IC50) in assay [18] was 0.518 µM; in [13] it was 0.0126 to 0.0305 µM; in [15], 0.001 to 0.0017 µM; in assay [16], 0.0742 µM.

Regarding RTCCSRPTCRMEYPELC*grr [SrIA/SrIB], the nAChRs selectivity result in assay [19] is recorded as “Muscle nAChR/α4β2”.

B1: α-conotoxin TxIB/Txd4(G) (peptide)
peptide: GCCSDPPCRNKHPDLCG
modifications: not fully specified; ends and bridges not checked
For the molecule B1, the “IC50 (half-blocking dose) on ACh-gated current” value (“IC50 (half-blocking dose)” below) in [20], in assay [21], in [22], in assay [23], in assay [24] and in [25] was > 10 µM each time. The “IC50 (half-blocking dose)” value was > 10 µM in assay [26], > 10 µM in assay [27], > 10 µM in assay [28] and 0.247 µM in assay [29].

B2: α-conotoxin TxIB/Txd4 (peptide)
peptide: GCCSDPPCRNKHPDLC
modifications: not fully specified; ends and bridges not checked
Take B2: the “IC50 (half-blocking dose)” value in assay [20], in [21], in [22], in assay [23], in assay [24] and in assay [25] was > 10 µM in each case. Further, the “IC50 (half-blocking dose)” value in [26] was > 10 µM; in assay [27], > 10 µM; in assay [28], > 10 µM; in [29] it was 0.0284 µM.
